According to patent US11384385B2, “Method for predicting therapeutic effects of irinotecan, and kit for same” (Yamaguchi University, priority 2017, dated 2022):
Where two headings read alike, the source gives them in different places.

Columns and labels:
[1] = tested on: colorectal cancer (stage IV); experiment: Therapeutic effect of irinotecan on cancer evaluated by RECIST (CR and PR = therapeutic effect), by rs1980576 genotype; type: in vivo, human; details: for therapeutic effect observed (CR+PR): rs1980576 wild-type homozygote (A/A)
Method: Analysis objects were 140 cases among 155 Japanese colorectal cancer (stage IV) cases who were administered with irinotecan excluding cases who were administered with a reduced amount of irinotecan, UGT1A1*6 (homo), UGT1A1*28 (homo), and their compound heterogeneous cases and determined for the therapeutic effect and 66 subpopulation cases (FOLFIRI cases with a unified regimen) among the 140 cases. FOLFIRI is one of standard treatments for colorectal cancer and using irinotecan simultaneous with treatment with a combination of fluorouracil and 1-leucovorin. The 140 cases were Japanese colorectal cancer patients treated with a regimen including irinotecan. The regimen in this Example includes combination therapy, in addition to irinotecan, with FOLFIRI using fluorouracil and 1-leucovorin, […] using capecitabine, IRIS using S-1, or an anti-EGFR antibody agent ([…], Cetuximab, or Panitumumab). Comprehensive analysis (WES analysis) of the prepared genome DNA was performed by the same method as described in WO2016/132736 (PCT/JP2016/000793). That is, three types of cases: cases (n=5) as a control group in which UGT1A genetic polymorphisms (seven positions of UGT1A1*6, *27, and *28, UGT1A7 (387T>G and 622T>C), UGT1A9*1b, and UGT1A1*60) were all homozygotes being low in side effect risk and no side effect from irinotecan were observed; cases (n=5) as a case group in which although the UGT1A genetic polymorphisms were the same as those in the control group, side effects (Grade 3, entire course) were observed; and cases (n=5) in which any of the UGT1A genetic polymorphisms was a heterozygote and a side effect was observed from the first administration of irinotecan (Grade 4), were established, and the case and control groups were analyzed. […] The genetic polymorphisms and the side effect frequency and the response rates were statistically analyzed using a Cochran-Armitage trend test. […] Accordingly, 11 single nucleotide polymorphisms in total: the above-mentioned single nucleotide polymorphisms a) to f) and single nucleotide polymorphisms g) UGT1A1*6, h) UGT1A1*60, i) UGT1A7 (387T>G), j) UGT1A7 (622T>C), and k) UGT1A9*1b known to be involved in side effects from irinotecan, were analyzed for a relationship with the therapeutic effects of irinotecan on cancer. […] CR and PR were determined to have a therapeutic effect; and SD and PD were determined to have no therapeutic effect. […] FIGS. 1 and 2 show the analysis results of 140 cases determined for therapeutic effects, and FIGS. 3 and 4 show the analysis results of 66 subpopulation cases among the 140 cases. […] In addition, in FIGS. 1 to 4, “Odds ratio” is calculated as an odds ratio of the therapeutic effects (efficacy) of irinotecan on cancer in a wild-type homozygote or a mutant-type homozygote by Fisher's exact test.

cancer = details: general response rate; cited from earlier work
[2] = FIG. 5, Table 2 of WO2016/132736, cited from earlier work
[3] = rs1980576 mutant-type homozygote (G/G)

In the case of `CCc1c2c(nc3ccc(OC(=O)N4CCC(N5CCCCC5)CC4)cc13)-c1cc3c(c(=O)n1C2)COC(=O)[C@]3(O)CC` [irinotecan, (S)-4,11-diethyl-3,4,12,14-tetrahydro-4-hydroxy-3,14-dioxo-1H-pyrano[3′,4′:6,7]indolizino[1,2-b]quinolin-9-yl ester, CPT-11,1,4′-bipiperidine-1′-carboxylic acid], the “possibility of a therapeutic effect of irinotecan on cancer” value ([1]; rs1980576 heterozygote (A/G)) is reported as “high”, the therapeutic effect [1, 3] is reported as “low” and the “therapeutic effect observed (CR+PR)” value ([1]; 66 FOLFIRI cases only (FIG. 3)) is reported as 43%. The “therapeutic effect observed (CR+PR)” value ([1]; 140 Japanese colorectal cancer cases, regimen including irinotecan (FIG. 1)) was 38%, the “response rate of irinotecan generally” value (cancer) was “about 32%” and the “risk of side effects” value ([2]; rs1980576 heterozygote (A/G)) was “low”. For the same compound, the “risk of side effects” value [2, 3] was “high” and the “risk of side effects” value ([2]; rs1980576 wild-type homozygote (A/A)) was “low”.
